The conditions of this data set: Crystal 2; AC calorimetry.

SMILES strings stand for the structures. ± gives the expanded uncertainty stated by the source.

Regarding `O=P([O-])(O)P(=O)([O-])O.[NH4+].[NH4+]` [diammonium hypodiphosphate], the Triple point temperature is recorded as 177.5 ± 0.1 K.

(Values after the NIST ThermoML archive (doi:10.1016/j.tca.2011.09.016).)
